Legend:
[1] = system: MDA-MB-435; assay: In vivo percent T/C against MDA-MB-435 human breast carcinoma cells implanted sc in mice at a dose 26 umol/kg; type: functional
[2] = system: MDA-MB-435; assay: (§1) Antiproliferative activity against MDA-MB-435 human breast carcinoma cells in vitro using MDA-MB-435 monolayer growth assay.; type: functional, cell-based
[3] = system: MDA-MB-435; assay: In vivo percent T/C against MDA-MB-435 human breast carcinoma cells implanted sc in mice at a dose 52 umol/Kg; type: functional
[4] = system: MDA-MB-435; assay: In vivo for percent body weight against MDA-MB-435 human breast carcinoma cells implanted sc in mice at a dose 26 umol/kg; type: functional
[5] = system: MDA-MB-435; assay: In vivo for percent body weight against MDA-MB-435 human breast carcinoma cells implanted sc in mice at a dose 52 umol/Kg; type: functional
[6] = system: MDA-MB-435; assay: In vivo percent T/C against MDA-MB-435 human breast carcinoma cells implanted sc in mice at a dose 10 umol/kg; type: functional
[7] = system: MDA-MB-435; assay: as §1; type: functional
[8] = system: MDA-MB-435; assay: In vivo percent T/C against MDA-MB-435 human breast carcinoma cells implanted sc in mice at a dose 33 umol/Kg; type: functional
[9] = system: MDA-MB-435; assay: In vivo percent body weight versus MDA-MB-435 human breast carcinoma cells implanted sc in mice at a dose 10 umol/kg; type: functional
[10] = system: MDA-MB-435; assay: In vivo percent body weight versus MDA-MB-435 human breast carcinoma cells implanted sc in mice at a dose 33 umol/Kg; type: functional
[11] = system: MDA-MB-435; assay: In vivo percent T/C against MDA-MB-435 human breast carcinoma cells implanted sc in mice at a dose 100 umol/kg; type: functional
[12] = system: MDA-MB-435; assay: In vivo for percent body weight against MDA-MB-435 human breast carcinoma cells implanted sc in mice at a dose 100 umol/Kg; type: functional
[13] = system: MDA-MB-435; assay: In vivo for percent body weight against MDA-MB-435 human breast carcinoma cells implanted sc in mice at a dose m100 umol/Kg; type: functional
[14] = system: MDA-MB-435; assay: In vivo percent T/C against MDA-MB-435 human breast carcinoma cells implanted sc in mice at a dose 100 umol/Kg; type: functional
[15] = system: MDA-MB-435; assay: In vivo percent T/C against MDA-MB-435 human breast carcinoma cells implanted sc in mice at a dose 279 umol/Kg; type: functional
[16] = system: MDA-MB-435; assay: In vivo percent T/C against MDA-MB-435 human breast carcinoma cells implanted sc in mice at a dose 84 umol/Kg; type: functional
[17] = system: MDA-MB-435; assay: In vivo for percent body weight against MDA-MB-435 human breast carcinoma cells implanted sc in mice at a dose 279 umol/Kg; type: functional
[18] = system: MDA-MB-435; assay: In vivo for percent body weight against MDA-MB-435 human breast carcinoma cells implanted sc in mice at a dose 28 umol/kg; type: functional
[19] = system: MDA-MB-435; assay: In vivo for percent body weight against MDA-MB-435 human breast carcinoma cells implanted sc in mice at a dose 84 umol/kg; type: functional
[20] = system: MDA-MB-435; assay: In vivo percent T/C against MDA-MB-435 human breast carcinoma cells implanted sc in mice at a dose 28 umol/kg; type: functional
[21] = system: MDA-MB-435; assay: In vivo for percent body weight against MDA-MB-435 human breast carcinoma cells implanted sc in mice at a dose 2 umol/kg; type: functional
[22] = system: MDA-MB-435; assay: In vivo percent T/C against MDA-MB-435 human breast carcinoma cells implanted sc in mice at a dose 2 umol/kg; type: functional

Row | SMILES | T/C [6] [%] | IC50 [7] [nM] | T/C [8] [%] | Body weight [9] [%] | Body weight [10] [%] | further results
1 | CO[C@@H](C(=O)NC1CC[C@H](O)CN(C)C1=O)[C@H](O)[C@@H](O)[C@H](O)/C=C/C(C)C (stereo partly specified) | – | – | – | – | – | T/C [1]: 42%; IC50 [2]: 2900 nM; T/C [3]: 41%; Body weight [4]: 9.5%; Body weight [5]: 0.8%
2 | CO[C@@H](C(=O)NC1CC[C@@H](OC(=O)C2CCCCCC2)CNC1=O)[C@H](O)[C@@H](O)[C@H](O)/C=C/C(C)(C)C (stereo partly specified) | <39 | 20 | <28 | 10.1 | 8.4 | –
3 | CO[C@@H](C(=O)NC1CC[C@@H](OC(=O)C2CCCCC2)CNC1=O)[C@H](O)[C@@H](O)[C@H](O)/C=C/C(C)(C)C (stereo partly specified) | <58 | 4 | <7 | 10.5 | 3.5 | T/C [11]: <29%; Body weight [12]: -2.6%
4 | CO[C@@H](C(=O)NC1CC[C@@H](OC(=O)CCc2ccccc2)CNC1=O)[C@H](O)[C@@H](O)[C@H](O)/C=C/C(C)(C)C (stereo partly specified) | <53 | 10 | <12 | 6 | 5.3 | Body weight [13]: -3.1%; T/C [14]: <58%
5 | CO[C@@H](C(=O)NC1CCCCN(C)C1=O)[C@H](O)[C@@H](O)[C@H](O)/C=C/C(C)C (stereo partly specified) | – | – | – | – | – | IC50 [2]: 2900 nM
6 | CCCCCCCCCCCCCOC(=O)[C@H]1CCC(NC(=O)[C@H](OC)[C@H](O)[C@@H](O)[C@H](O)/C=C/C(C)C)C(=O)NC1 (stereo partly specified) | – | – | – | – | – | IC50 [2]: 1 nM
7 | CO[C@@H](C(=O)NC1CC[C@@H](OC(=O)Cc2cccnc2)CNC1=O)[C@H](O)[C@@H](O)[C@H](O)/C=C/C(C)(C)C (stereo partly specified) | 69 | 5850 | 82 | 6.4 | 6.8 | –
8 | CO[C@@H](C(=O)NC1CC[C@@H](OC(=O)CCc2cccnc2)CNC1=O)[C@H](O)[C@@H](O)[C@H](O)/C=C/C(C)(C)C (stereo partly specified) | 92 | 460 | <44 | 10.1 | 3 | –
9 | CCCCCCCCCCc1ccc(C(=O)O[C@@H]2CCC(NC(=O)[C@H](OC)[C@H](O)[C@@H](O)[C@H](O)/C=C/C(C)(C)C)C(=O)NC2)cc1 (stereo partly specified) | 76 | 30 | <6 | 6 | 2.6 | –
10 | CO[C@@H](C(=O)NC1CC[C@@H](OC(=O)c2ccccc2)CNC1=O)[C@H](O)[C@@H](O)[C@H](O)/C=C/C(C)(C)C (stereo partly specified) | 93 | 370 | 80 | 5.5 | 5.6 | –
11 | CCCCCc1ccc(C(=O)O[C@@H]2CCC(NC(=O)[C@H](OC)[C@H](O)[C@@H](O)[C@H](O)/C=C/C(C)(C)C)C(=O)NC2)cc1 (stereo partly specified) | 111 | 20 | 91 | 6 | 2.6 | –
12 | CO[C@@H](C(=O)NC1CC[C@@H](OC(=O)C2CCCC2)CNC1=O)[C@H](O)[C@@H](O)[C@H](O)/C=C/C(C)(C)C (stereo partly specified) | 67 | 130 | <13 | 7.6 | 3 | –
13 | CO[C@@H](C(=O)NC1CC[C@@H](OC(=O)/C=C/c2ccccc2)CNC1=O)[C@H](O)[C@@H](O)[C@H](O)/C=C/C(C)(C)C (stereo partly specified) | <64 | 20 | <63 | 7.4 | 7.5 | –
14 | CCCCCCCCCCCCCC(=O)O[C@H]1CCC(NC(=O)[C@H](OC)[C@H](O)[C@@H](O)[C@H](O)/C=C/C(C)(C)C)C(=O)N(C)C1 (stereo partly specified) | <58 | 10 | <46 | 6.1 | 6.4 | –
15 | CCCCCCCCCCOc1ccc(C(=O)O[C@@H]2CCC(NC(=O)[C@H](OC)[C@H](O)[C@@H](O)[C@H](O)/C=C/C(C)(C)C)C(=O)NC2)cc1 (stereo partly specified) | <64 | 10 | 2 | 8.8 | -0.9 | –
16 | CO[C@@H](C(=O)NC1CC[C@@H](OC(=O)CC2CCCCC2)CNC1=O)[C@H](O)[C@@H](O)[C@H](O)/C=C/C(C)(C)C (stereo partly specified) | <47 | 60 | <34 | 4.6 | 3.5 | –
17 | CO[C@@H](C(=O)NC1CC[C@@H](OC(=O)Cc2ccccc2)CNC1=O)[C@H](O)[C@@H](O)[C@H](O)/C=C/C(C)(C)C (stereo partly specified) | 72 | 260 | <43 | 10.6 | 3.9 | –
18 | CCCCCCCCCCCCCC(=O)O[C@@H]1CCC(NC(=O)[C@H](OC)[C@H](O)[C@@H](O)[C@H](O)/C=C/C(C)(C)C)C(=O)NC1 (stereo partly specified) | <41 | < 10 | <4 | 7.4 | 5.7 | –
19 | CO[C@@H](C(=O)NC1CCCCNC1=O)[C@H](O)[C@@H](O)[C@H](O)/C=C/C(C)C (stereo partly specified) | – | – | – | – | – | T/C [15]: <19%; IC50 [2]: 3300 nM; T/C [16]: 62%; Body weight [17]: 6.7%; Body weight [18]: 8.4%; Body weight [19]: 7.1%; T/C [20]: 62%
20 | COc1cccc2c1C(=O)c1c(O)c3c(c(O)c1C2=O)C[C@@](O)(C(=O)CO)C[C@@H]3O[C@H]1C[C@H](N)[C@H](O)[C@H](C)O1 [DOXORUBICIN] | – | 400 | – | – | – | Body weight [21]: 3.9%; T/C [22]: <44%

— ChEMBL document CHEMBL1134665, “Synthesis and antitumor activity of ester-modified analogues of bengamide B” (J Med Chem, 2001)
